Where no end group is shown, it is not given here.
Legend:
Type in all cases: cell-based, human
[1] = tested on: release of IL-5 upon T cell activation; assay: Fluorospot assay, IL-5 release (DK1-TCL01, US1-TCL01); conditions: head prints TCL-02 DK1; text: 25 TCL-01 DK1 lines
Procedure: (§1) Grass allergic donors were recruited (cohort DK1 including 30 grass allergic individuals, DK2 including 24 grass allergic individuals and US1 including 15 grass allergic individuals). PBMCs were isolated from freshly drawn heparinized blood by gradient centrifugation on lymphoprep (Nycomed, Norway), washed twice and re-suspended in RPMI 1640 medium with HEPES and ultraglutamine (Cambrex, Belgium) supplemented with 5% v/v human AB-serum (Cambrex, Belgium), 100 units/ml penicillin, and 0.1 mg/ml streptomycin (Sigma, St Louis, USA) (referred to as 5% AB-medium). Aliquots of the isolated PBMCs were frozen and were thawed later to stimulate the T cell lines. Additionally either fresh or thawed PBMCs were used as antigen presenting cells (APCs) in the proliferation assay as described later. In some cases the PBMCs were freezed at this stage and thawed later on to continue the experiment as described in the following. The isolated PBMCs (fresh or thawed) were CD8 depleted by MACS magnetic depletion according to the manufacturer's instructions (Miltenyi Biotec, Bergisch Gladbach, Germany). On day 0 the CD8-depleted PBMCs (2×10^6/ml) were stimulated in 1 ml bulk cultures in AB medium in 24 well plates (Nunc, Denmark) with the mixture of natural allergens: nPhl p 1 (0.5 μg/ml), mix of nPhl p 2/nPhl p 3 (1.0 μg/ml), nPhl p 4 (0.5 μg/ml), nPhl p 5 (0.5 μg/ml) and nCyn d 1 (0.5 μg/ml). Amount of 65 U, 30 U, and 30 U recombinant IL-2 (Chiron, USA) were added per well at days 5, 6 and 7, respectively. On day 14 cells were harvested to obtain T cell line generation 01 (referred to as TCL01).
(§2) On day 14 the T cells of TCL01 were isolated, washed and counted. The isolated T cells of TCL01 generation were used to perform either ELISpot or Fluorospot assay. TCL01 were further re-stimulated as described in the next paragraph for use in T cell proliferation. The aliquot for use in T cell proliferation was re-stimulated on day 14 to carry out proliferation experiment at day 24.
(§3) In the Fluorospot assays, release of IL-5 and IFN-γ upon T cell activation (of donor derived lines DK1-TCL01, and US1-TCL01) with a peptide or a peptide-mix described herein was measured by Fluorospot assay kit (Mabtech AB) and procedures were followed as per manufacturer's instructions. Briefly anti-human IL-5 and anti-human IFN-γ coated 96 well plates were obtained and blocked with 10% AB serum in RPMI. The plates were washed thoroughly and the isolated T cells were plated and incubated with either single peptides (2 μg/ml) or peptide mixes (2 μg/ml), or allergens nPhl p1, nPhl p 2, nPhl p 3, nPhl p 4, nPhl p 5, Cyn d 1 at 2 μg/ml for 20 hrs/37° C./5% CO2. After the incubation time the cells were removed by emptying the plate. Detection antibodies 7-B6-1-FS-FITC (1:200) and 5A10-biotin (2 μg/ml) were diluted in PBS-0.1% BSA and were added to the plate and incubated for 2 hours/room temperature (RT). There-after the plates were washed and anti-FITC-green (1:200) and SA-Red (1:200) diluted in PBS±0.1% BSA were added and incubated for 1 hour/RT/dark. After the incubation period the plates were washed, emptied and fluorescence enhancer solution was added for 15 minutes/RT. Plates were emptied, fluorescence enhancer solution was firmly tapped out against a clean paper, soft plastic under drain was removed and the plates were left in the dark to dry. The counts were inspected in a fluorospot reader. Hit criteria for peptide were 20 SFCs/10^6 PBMCs, p≤0.05 and poisson 0.05 stimulated cells compared to background, and a stimulation index (SI)≥2.
(§4) The peptides were identified as hits if they fulfilled the criteria as mentioned below where stimulation index (SI) value of 2 or above, Poisson value=<0.05 and P value=<0.05, SFC>=20 (IL-5/IFN-g)/10^6 cells and CPM>=1000 (proliferation) SI can be defined as [[…]/medium control] in a Fluorospot assay and [counts per minute (cpm)/medium control] in a proliferation assay.

[2] = tested on: release of IFN-γ upon T cell activation; assay: Fluorospot assay, IFN-γ release (DK1-TCL01, US1-TCL01); conditions: head prints TCL-02 DK1; 17 TCL-01 DK1 lines
Procedure: as §1, §2, §3, §4

[3] = tested on: allergen specific T cells; assay: T cell proliferation assay (72 h) on donor derived T cell lines (TCL02/TCL03); conditions: for Proliferation % donor coverage (TCL-02 DK1): T cell lines TCL-02 DK1, 30 donors, hit criteria SI>=2, CPM>=1000; for Proliferation strength (TCL-02 DK1): T cell lines TCL-02 DK1, strength of response (average relative magnitude)
Description: Isolated PBMCs (peripheral blood mononuclear cells) obtained from the donors described in Example 2 were CD8 depleted and the T cell lines were established by stimulating the cultures with nPhl p1, mix of nPhl p 2 and […] 5 and […] established for each of the donors tested by stimulating with the mixture of above listed allergens. Grass allergic donors were recruited (cohort DK1 including 30 grass allergic individuals, DK2 including 24 grass allergic individuals and US1 including 15 grass allergic individuals). PBMCs were isolated from freshly drawn heparinized blood by gradient centrifugation on lymphoprep (Nycomed, Norway), washed twice and re-suspended in RPMI 1640 medium with HEPES and ultraglutamine (Cambrex, Belgium) supplemented with 5% v/v human AB-serum (Cambrex, Belgium), 100 units/ml penicillin, and 0.1 mg/ml streptomycin (Sigma, St Louis, USA) (referred to as 5% AB-medium). Aliquots of the isolated PBMCs were frozen and were thawed later to stimulate the T cell lines. Additionally either fresh or thawed PBMCs were used as antigen presenting cells (APCs) in the proliferation assay as described later. In some cases the PBMCs were freezed at this stage and thawed later on to continue the experiment as described in the following. The isolated PBMCs (fresh or thawed) were CD8 depleted by MACS magnetic depletion according to the manufacturer's instructions (Miltenyi Biotec, Bergisch Gladbach, Germany). On day 0 the CD8-depleted PBMCs (2×10^6/ml) were stimulated in 1 ml bulk cultures in AB medium in 24 well plates (Nunc, Denmark) with the mixture of natural allergens: nPhl p 1 (0.5 μg/ml), mix of […]). […] On day 14 cells were harvested to obtain T cell line generation 01 (referred to as TCL01). Restimulation of T cell lines were performed in AB-medium with the thawed autologous PBMCs (10^6/well, irradiated 2500 Rad), the above mixture of natural allergens (concentration as mentioned above), and PHA-P (0.5 μg/ml, Difco, Detroit, Mich., USA). rIL-2 was added at day 17, 18 and 19. On day 24 cells were harvested to obtain T cell line generation 02 (referred as TCL02). T cells were isolated, washed, counted and used for T cell proliferation assay as described later. Remaining cells were frozen for later thawing and re-stimulations. The T cell line generation 2 (TCL02) were thawed and were re-stimulated with allogeneic Epstein Bar Virus transformed lymphoblastoid cell lines (EBV) B cells (JY cells, 10^5/well, irradiated 3500 Rad), allogeneic PBMCs (10^6/well, irradiated 2500 Rad), and 0.5 μg/ml PHA-P and subsequent addition of rIL-2 at days 3-5 to generate T cell line generation 03 (referred to as TCL03). […] To summarize ELISpot experiments were carried out at day 14 (with TCL01) and proliferation assay on either day 24 (with TCL02) or at day 34 (with TCL03). […] To ensure that all T cell epitopes regions from the major and intermediate grass allergens of the grass were identified T cell screening was carried out with either overlapping peptides or selected peptides. […] These were overlapping 20-mer peptides spanning the entire full length amino acid sequence of […] and selected high binder peptides from Phl p 4 were tested. Additionally 21, 15 mer peptides were tested which were derived from various group 1 and 5 allergens. Also, 67 peptides from homologous grass allergens were tested. Finally some reference peptides and mixes thereof were also tested. The 15-mer peptides were selected on the basis of predicted and measured promiscuous HLA binding and of sequence homology between known proteins sequences from the relevant pooideae grasses and the Bermuda grass. […] To get comprehensive data from all the donors the peptides were tested in both Fluorospot/Elispot (day 14, TCL01) and proliferation (day 24, TCL02).

Compound: CC[C@H](C)[C@H](NC(=O)[C@@H](NC(=O)[C@H](CCCNC(=N)N)NC(=O)[C@H](CC(C)C)NC(=O)[C@H](C)NC(=O)[C@H](CCC(=O)O)NC(=O)[C@@H](NC(=O)[C@H](CC(C)C)NC(=O)[C@@H](NC(=O)[C@H](C)NC(=O)[C@@H](NC(=O)[C@H](Cc1ccc(O)cc1)NC(=O)[C@H](C)NC(=O)[C@@H](N)CC(=O)O)C(C)C)[C@@H](C)O)[C@@H](C)O)C(C)C)C(=O)N[C@@H](C)C(=O)O [compound 128]
- IL-5-Fluorospotr % donor coverage (TCL-02 DK1) [1]: 41.67%
- IFN-gamma % donor coverage (TCL-02 DK1) [2]: 12.00%
- Proliferation % donor coverage (TCL-02 DK1) [3]: 60.00%
- Proliferation strength (TCL-02 DK1) [3]: 13.50

Compound: GSNEKHLAVLVKYEGDTMAE-OH [compound 31]
- IL-5-Fluorospotr % donor coverage (TCL-02 DK1) [1]: 0.00%
- IFN-gamma % donor coverage (TCL-02 DK1) [2]: 0.00%
- Proliferation % donor coverage (TCL-02 DK1) [3]: 10.00%
- Proliferation strength (TCL-02 DK1) [3]: 1.40

Compound: LVKYVNGDGDVVAVDIKEKG-OH [compound 9]
- IL-5-Fluorospotr % donor coverage (TCL-02 DK1) [1]: 20.00%
- IFN-gamma % donor coverage (TCL-02 DK1) [2]: 8.00%
- Proliferation % donor coverage (TCL-02 DK1) [3]: 26.67%
- Proliferation strength (TCL-02 DK1) [3]: 1.60

Compound: GDEQKLRSAGELELQFRRVK-OH [compound 6]
- IL-5-Fluorospotr % donor coverage (TCL-02 DK1) [1]: 20.00%
- IFN-gamma % donor coverage (TCL-02 DK1) [2]: 4.00%
- Proliferation % donor coverage (TCL-02 DK1) [3]: 46.67%
- Proliferation strength (TCL-02 DK1) [3]: 7.10

Compound: CC[C@H](C)[C@H](NC(=O)[C@H](CC(N)=O)NC(=O)[C@H](CC(C)C)NC(=O)[C@@H](NC(=O)[C@H](CC(C)C)NC(=O)[C@@H](NC(=O)[C@H](CCCCN)NC(=O)[C@H](C)NC(=O)[C@H](CC(=O)O)NC(=O)[C@@H](N)CO)[C@@H](C)O)C(C)C)C(=O)N[C@@H](CCCCN)C(=O)N[C@@H](Cc1ccc(O)cc1)C(=O)N[C@H](C(=O)N[C@@H](CCCNC(=N)N)C(=O)N1CCC[C@H]1C(=O)O)[C@@H](C)O [compound 125]
- IL-5-Fluorospotr % donor coverage (TCL-02 DK1) [1]: 12.50%
- IFN-gamma % donor coverage (TCL-02 DK1) [2]: 4.00%
- Proliferation % donor coverage (TCL-02 DK1) [3]: 31.03%
- Proliferation strength (TCL-02 DK1) [3]: 6.30

Compound: VFDDVVPEKYTIGATYAPEE-OH [compound 35]
- IL-5-Fluorospotr % donor coverage (TCL-02 DK1) [1]: 0.00%
- IFN-gamma % donor coverage (TCL-02 DK1) [2]: 0.00%
- Proliferation % donor coverage (TCL-02 DK1) [3]: 13.33%
- Proliferation strength (TCL-02 DK1) [3]: 0.70

Compound: EWVAMTKGEGGVWTFDSEEP-OH [compound 27]
- IL-5-Fluorospotr % donor coverage (TCL-02 DK1) [1]: 8.00%
- IFN-gamma % donor coverage (TCL-02 DK1) [2]: 4.00%
- Proliferation % donor coverage (TCL-02 DK1) [3]: 13.33%
- Proliferation strength (TCL-02 DK1) [3]: 2.30

Compound: CC(C)[C@H](NC(=O)[C@H](C)NC(=O)[C@H](C)NC(=O)[C@H](CCCCN)NC(=O)[C@@H](N)Cc1ccccc1)C(=O)N[C@@H](C)C(=O)N[C@@H](C)C(=O)N[C@@H](C)C(=O)N[C@@H](C)C(=O)NCC(=O)N[C@@H](C)C(=O)N1CCC[C@H]1C(=O)N1CCC[C@H]1C(=O)N[C@@H](C)C(=O)N[C@@H](CC(=O)O)C(=O)O [compound 133]
- IL-5-Fluorospotr % donor coverage (TCL-02 DK1) [1]: 21.74%
- IFN-gamma % donor coverage (TCL-02 DK1) [2]: 0.00%
- Proliferation % donor coverage (TCL-02 DK1) [3]: 31.03%
- Proliferation strength (TCL-02 DK1) [3]: 4.70

Compound: TSKLDAAYKLAYKTAEGATP-OH [compound 65]
- IL-5-Fluorospotr % donor coverage (TCL-02 DK1) [1]: 4.00%
- IFN-gamma % donor coverage (TCL-02 DK1) [2]: 4.00%
- Proliferation % donor coverage (TCL-02 DK1) [3]: 30.00%
- Proliferation strength (TCL-02 DK1) [3]: 5.70

Compound: GAASNKAFAEGLSGEPKGAA-OH [compound 76]
- IL-5-Fluorospotr % donor coverage (TCL-02 DK1) [1]: 0.00%
- IFN-gamma % donor coverage (TCL-02 DK1) [2]: 0.00%
- Proliferation % donor coverage (TCL-02 DK1) [3]: 16.67%
- Proliferation strength (TCL-02 DK1) [3]: 1.60

Compound: GRGSGSSFEIKSTKPEASSG-OH [compound 2]
- IL-5-Fluorospotr % donor coverage (TCL-02 DK1) [1]: 12.00%
- IFN-gamma % donor coverage (TCL-02 DK1) [2]: 4.00%
- Proliferation % donor coverage (TCL-02 DK1) [3]: 26.67%
- Proliferation strength (TCL-02 DK1) [3]: 3.10

Compound: GQEDKLRKAGELTLQFRRVK-OH [compound 101]
- IL-5-Fluorospotr % donor coverage (TCL-02 DK1) [1]: 4.00%
- IFN-gamma % donor coverage (TCL-02 DK1) [2]: 0.00%
- Proliferation % donor coverage (TCL-02 DK1) [3]: 13.33%
- Proliferation strength (TCL-02 DK1) [3]: 1.20

Compound: AIGDKPGPNITATYGSKWLE-OH [compound 89]
- IL-5-Fluorospotr % donor coverage (TCL-02 DK1) [1]: 0.00%
- IFN-gamma % donor coverage (TCL-02 DK1) [2]: 0.00%
- Proliferation % donor coverage (TCL-02 DK1) [3]: 6.67%
- Proliferation strength (TCL-02 DK1) [3]: 1.10

From patent US20180207228A1, “PEPTIDE COMBINATIONS AND USES THEREOF FOR TREATING GRASS ALLERGY” (ALK-Abelló A/S, priority 2015, published 2018)
